Assay [1] deals with MRSA (n = 21). Briefly: MIC90, expanded MIC panel (Table 4). It counts as cell-based. The following applies: Staphylococcus aureus, MRSA, read-out: MIC90 MRSA (n = 21). The protocol: II. […] MIC90 values were defined as the concentration required to inhibit growth of 90% of the strains tested. • C. SAR was performed using the following isolates: Sa399 (ATCC43300, MRSA), Sa1721 (NARSA NRS384, MRSA USA 300), Pa44 (ATCC27853), and 4 clinical isolates (Pa2241, Pa2086 (mucoid strain), Pa2694 and Pa2698). • D. The in vitro antibacterial activity of the compound of formula (I) was further evaluated in an expanded MRSA and Pa MIC panel (see Table 4 and FIG. 6).

The subject of assay [2] is MRSA #712. Briefly: MIC in MHB by standard CLSI microdilution (Example 4). It counts as cell-based. To be noted: Staphylococcus aureus, MRSA. An excerpt: II. Methods • A. Animals: Six week-old, specific pathogen free, female CD-1 mice purchased from Charles River Laboratories (Wilmington, Mass.) were used for all studies after acclimation in Cubist animal facility. All animal procedures were approved by the Cubist Institutional Animal Care and Use Committee. • B. Bacteria and In Vitro Susceptibility Testing: MRSA #712, Pseudomonas aeruginosa #2245 and #2545, and Klebsiella pneumoniae #573 are clinical isolates; Pseudomonas aeruginosa #44 is an ATCC strain (ATCC#27853). MIC was determined in MHB by standard CLSI microdilution. Comparator Antibiotics Used in Animal Studies: Vancomycin hydrochloride USP was purchased from Hospira (Lake Forest, Ill.); ceftazidime hydrate from Sigma; Primaxin (imipenem and cilastatin) from Merck; ceftaroline was synthesized at a CRO. • D. Mouse Septicemia: Mice received lethal inocula of bacteria in 6% hog gastric mucin intraperitoneally (IP), followed by two treatment doses of antibiotics via subcutaneous (SC) administration at 1 and 6 hrs post-inoculation. The survival of animals was recorded daily for 7 days. The antibiotic dose calculated to protect 50% of the mice (PD50) was derived based on probit analysis of percentage survival. • E. Mouse Thigh and Lung Infections: Mice were rendered neutropenic by two IP injections of cyclophosphamide 4 days (150 mg/kg) and 1 day (100 mg/kg) before bacterial inoculation. Thigh or lung infection was induced by an intramuscular injection of 0.2 mL or intranasal inoculation of 0.1 mL inoculum preparation from an overnight bacterial culture into left thigh or nares. Tissues from one group of mice receiving no treatment (No Rx) were harvested at 1 hr for determination of baseline of bacterial burden. The remaining mice received two treatment doses of vehicles or antibiotics given SC at 1 and 6 hrs post-inoculation. Tissues from the treated mice were harvested at ˜24 hrs post-inoculation. Tissue bacterial burdens were quantified by serial dilution and spiral plating of homogenates.

The subject of assay [3] is MRSA #712. Kind of assay: Thigh infection in neutropenic mice. In kind it is in vivo, Staphylococcus aureus. The protocol:
(§1) In vivo efficacy of (I) was evaluated against strains of MRSA, and ceftazidime-resistant Pa and Klebsiella pneumonia (Kpn) in mouse septicemia, thigh and lung infections. Septicemia: CD-1 mice received lethal bacterial inocula IP, followed by 2 doses of antibiotics SC at 1 and 6 hrs post-inoculation. Dose calculated to protect 50% of the mice (PD50) was derived based on probit analysis of percentage survival. Thigh and lung infections: Thighs or lungs of neutropenic mice were inoculated with MRSA or Pa. Two treatment doses were given SC at 1 and 6 hrs post-inoculation. Tissues were harvested at ˜24 hrs post-inoculation and bacterial burdens quantified.
II. Methods • A. Animals: Six week-old, specific pathogen free, female CD-1 mice purchased from Charles River Laboratories (Wilmington, Mass.) were used for all studies after acclimation in Cubist animal facility. All animal procedures were approved by the Cubist Institutional Animal Care and Use Committee. • B. Bacteria and In Vitro Susceptibility Testing: MRSA #712, Pseudomonas aeruginosa #2245 and #2545, and Klebsiella pneumoniae #573 are clinical isolates; Pseudomonas aeruginosa #44 is an ATCC strain (ATCC#27853). MIC was determined in MHB by standard CLSI microdilution. […] The survival of animals was recorded daily for 7 days. The antibiotic dose calculated to protect 50% of the mice (PD50) was derived based on probit analysis of percentage survival. • E. Mouse Thigh and Lung Infections: Mice were rendered neutropenic by two IP injections of cyclophosphamide 4 days (150 mg/kg) and 1 day (100 mg/kg) before bacterial inoculation. […] Tissue bacterial burdens were quantified by serial dilution and spiral plating of homogenates.

For assay [4], the system named is MRSA #712. Briefly: Mouse septicemia (systemic infection), PD50. In kind it is in vivo, Staphylococcus aureus. The following applies: CD-1 mice, IP inoculum, 2 SC doses at 1 and 6 hrs, 7 day survival. The protocol: as §1
II. […] MIC was determined in MHB by standard CLSI microdilution. […] The survival of animals was recorded daily for 7 days. The antibiotic dose calculated to protect 50% of the mice (PD50) was derived based on probit analysis of percentage survival. • E. Mouse Thigh and Lung Infections: Mice were rendered neutropenic by two IP injections of cyclophosphamide 4 days (150 mg/kg) and 1 day (100 mg/kg) before bacterial inoculation. […] Tissue bacterial burdens were quantified by serial dilution and spiral plating of homogenates.
III. […] The dose that protected 50% of the mice (PD50) was calculated by probit analysis based on percentage of mice surviving for 7 days post-inoculation. • C. […]

In assay [5] the test system is Sa399 (MRSA). Briefly: MIC, broth microdilution (Example 3), Table 1. In kind it is cell-based. The following applies: Staphylococcus aureus, CAMHB, final 2% NaCl. The protocol:
(§2) To prepare for MIC testing, individual colonies were isolated by streaking frozen glycerol material containing Staphylococcus or Pseudomonas spp. onto rich, non-selective, tryptic soy agar containing 5% sheep's blood (TSAB), and incubated at 37° C. for 18-24 hrs.
(§3) On the day of testing, primary cultures were started by scraping off 5-10 colonies from the TSAB plates. The material was suspended in ˜5 mL of cation adjusted Mueller Hinton Broth (CAMHB) in 14 mL culture tubes and incubated at 37° C. with aeration (200 rpm) for ˜2 hrs until the OD600 was ≧0.1.
(§4) Inoculum cultures were prepared by standardizing the primary cultures to OD600=0.1 and then adding 20 μL of the adjusted primary culture per 1 mL CAMHB for Pseudomonas and CAMHB plus 4% NaCl for MRSA so that the final inoculum density was ˜10^5 colony forming units per milliliter. Diluted inoculum cultures were used to inoculate 50 μL per well in 96 well broth microdilution assay plates. 50 μL of CAMHB that contained compound concentrations ranging from 64-0.06 μg/mL in two-fold dilutions was also added to the broth microdilution assay plates for a final volume 100 μL per well, therefore final culture OD600 was approximately 0.001 and the final NaCl concentration for the MRSA strain was 2%.
(§5) Plates were incubated for 18-20 hours at 37° C. with aeration (200 rpm). Following incubation, growth was confirmed visually placing plates over a viewing apparatus (stand with a mirror underneath) and then OD600 was measured using a SpectraMax 340PC384 plate reader (Molecular Devices, Sunnyvale, Calif.). Growth was defined as turbidity that could be detected with the naked eye or achieving minimum OD600 of 0.1. MIC values were defined as the lowest concentration producing no visible turbidity.

For assay [6], the system named is Pa44 (WT Pa). Kind of assay: MIC, broth microdilution (Example 3), Table 1. The following applies: Pseudomonas aeruginosa, CAMHB. In kind it is cell-based. On the procedure: as §2, §3, §4, §5

In brackets after ≈: the same amount, converted by molar mass. Where a name gives a salt, the structure may show the parent alone.

Regarding `CN[C@H](CC(C)C)C(=O)N[C@H]1C(=O)N[C@@H](CC(N)=O)C(=O)N[C@H]2C(=O)N[C@H]3C(=O)N[C@H](C(=O)N[C@H](C(=O)O)c4cc(O)cc(O)c4-c4cc3ccc4O)[C@H](O)c3ccc(c(Cl)c3)Oc3cc2cc(c3O[C@@H]2O[C@H](CO)[C@@H](O)[C@H](O)[C@H]2O[C@H]2C[C@](C)(N)[C@H](O)[C@H](C)O2)Oc2ccc(cc2Cl)[C@H]1O` [Vancomycin, Vancomycin hydrochloride], the MIC90 in assay [1] worked out at 1 µg/mL. Further, in assay [2], the MIC is 1 µg/mL. In addition, in assay [3] (MRSA #712 thigh infection, neutropenic mice, 2 SC doses at 1 and 6 hrs, 24 h, vs vehicle), the “Thigh (T) ED−2log” value is listed as >110 (T) mg/kg. Further, the “reduction in bacterial CFU” value in assay [3] (MRSA #712 thigh, 110 mg/kg SC) is listed as ~1.5 log. Moreover, the “Septicemia PD50 (± SE)” value in assay [4] came to 2.0 ± 1.3 mg/kg.

As for `CO/N=C(\C(=O)N[C@@H]1C(=O)N2C(C(=O)[O-])=C(C[N+]3(C)CCCC3)CS[C@H]12)c1csc(N)n1` [Cefepime], the minimum inhibitory concentration (MIC) is > 16 µg/mL in assay [5] and ≤ 4 µg/mL in assay [6].

As for `CO/N=C(\C(=O)N[C@@H]1C(=O)N2C(C(=O)[O-])=C(C[n+]3cccc4c3CCC4)CS[C@H]12)c1csc(N)n1` [Cefpirome], the results for the MIC in assay [5] and in assay [6] were 8 to 16 µg/mL (≈ 15.5 to 31.1 µM) and ≤ 4 µg/mL, respectively.

`CO/N=C(\C(=O)N[C@@H]1C(=O)N2C(C(=O)[O-])=C(C[n+]3ccc(CN)cc3)CS[C@H]12)c1csc(N)n1` [Compound 1-1]: the minimum inhibitory concentration (MIC) in assay [5] was > 16 µg/mL; in assay [6], ≤ 4 µg/mL.

Regarding `CO/N=C(\C(=O)N[C@@H]1C(=O)N2C(C(=O)[O-])=C(C[n+]3ccc(CNC(=O)c4ccccc4)cc3)CS[C@H]12)c1nc(N)sc1Cl` [Compound 1-2], the MIC in assay [5] was ≤ 4 µg/mL; in assay [6], > 16 µg/mL.

For the origin of these results see patent US8809314B1, “Cephalosporin compound” (Cubist Pharmaceuticals, Inc., priority 2012, dated 2014).
